Source: ChEMBL document CHEMBL6127081, “Peptide inhibitors targeting Ras and Ras-associated protein-protein interactions” (Eur J Med Chem, 2024)
Where a SMILES comes first, the peptide text is derived from it. Bridges are numbered along the chain shown (N, C = ends). [ ]: non-standard residue; d: D form. The star is where a group is joined. hPhe(3,5-F2-4-CF3) = N[C@@H](CCc1cc(F)c(C(F)(F)F)c(F)c1)C(=O)O; hPhe(3-Cl-4-CF3) = N[C@@H](CCc1ccc(C(F)(F)F)c(Cl)c1)C(=O)O; hPhe(4-CF3) = N[C@@H](CCc1ccc(C(F)(F)F)cc1)C(=O)O; NEtPhe(4-Me) = CCN[C@@H](Cc1ccc(C)cc1)C(=O)O; NMePhe(4-Cl) = CN[C@@H](Cc1ccc(Cl)cc1)C(=O)O; Phe(3-Cl) = N[C@@H](Cc1cccc(Cl)c1)C(=O)O; NMeGly(cPent) = CN[C@H](C(=O)O)C1CCCC1; Phe(4-F) = N[C@@H](Cc1ccc(F)cc1)C(=O)O; 2Nal = N[C@@H](Cc1ccc2ccccc2c1)C(=O)O; NMeCha = CN[C@@H](CC1CCCCC1)C(=O)O; NMeF = CN[C@@H](Cc1ccccc1)C(=O)O; NMeD = CN[C@@H](CC(=O)O)C(=O)O; NMeL = CN[C@@H](CC(C)C)C(=O)O; NMeV = CN[C@H](C(=O)O)C(C)C; NMeA = CN[C@@H](C)C(=O)O; Nle = CCCC[C@H](N)C(=O)O; Pyrrolidide = C1CCN(*)C1; Ac5c = NC1(C(=O)O)CCCC1; Aze = O=C(O)[C@@H]1CCN1; β3hA = C[C@H](N)CC(=O)O; Sar = CNCC(=O)O

biological target: T1, GTPase KRas (Homo sapiens, UniProt P01116); assay: Inhibition of KRas (unknown origin)
T1 sequence (P01116 whole entry): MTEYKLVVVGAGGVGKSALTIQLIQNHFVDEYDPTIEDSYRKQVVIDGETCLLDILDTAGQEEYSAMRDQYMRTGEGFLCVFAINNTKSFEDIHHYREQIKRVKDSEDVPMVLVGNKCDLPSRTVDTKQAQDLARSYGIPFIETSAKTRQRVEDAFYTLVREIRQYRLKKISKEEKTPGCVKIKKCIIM

Point of comparison: CC(C)C[C@H](NC(=O)C1CCCOCc2cnnn2CCC(=O)NCC(=O)N2CCC[C@H]2C(=O)N[C@@H](Cc2cccc3ccccc23)C(=O)N1)C(N)=O (some centres not stated), IC50 7.1 µM. Against it:
- CC[C@H](C)[C@@H]1NC(=O)[C@@H]2CCCN2C(=O)[C@H](Cc2ccc(O)cc2)NC(=O)[C@@H](NC(=O)[C@H](CC(=O)O)NC(=O)[C@H](Cc2ccc(O)cc2)NC(=O)[C@H](Cc2ccccc2)NC(=O)[C@H](Cc2c[nH]cn2)NC(=O)[C@@H](N)Cc2ccccc2)CC#CC[C@@H](C(=O)N[C@@H](CC(C)C)C(=O)N[C@H](C(=O)N2CCC[C@H]2C(=O)N2CCC[C@H]2C(N)=O)[C@@H](C)CC)NC1=O — 310-fold lower, 0.023 µM
- CC[C@H](C)[C@@H]1NC(=O)[C@@H]2CCCN2C(=O)CNC(=O)CCn2nncc2COCCCC(C(=O)N[C@@H](CC(C)C)C(N)=O)NC1=O (some centres not stated) — 14-fold higher, 100 µM
- CC(C)C[C@H](NC(=O)C1CCCOCc2cnnn2CCC(=O)NCC(=O)N2CCCC[C@H]2C(=O)N[C@@H](Cc2cccc3ccccc23)C(=O)N1)C(N)=O (some centres not stated) — within 1.5-fold, 7.7 µM

biological target: SOS1-KRAS (Homo sapiens, UniProt P01116, G12D); assay: Inhibition of KRAS G12D mutant/SOS1 (unknown origin) interaction by TR-FRET assay; assay type: protein-complex assay
Sequence (P01116 whole entry G12D, looked up): as the sequence (P01116 whole entry) above, with G12D counted along it

Point of comparison: CC[C@H](C)[C@H](NC(=O)CNC(=O)[C@H](Cc1ccccc1)NC(=O)[C@H](Cc1ccccc1)NC(=O)[C@H](CCCNC(=N)N)NC(=O)[C@H](CCCNC(=N)N)NC(C)=O)C(=O)N[C@@]1(C)CCC/C=C\CCC[C@@](C)(C(=O)N[C@@H](CC(C)C)C(=O)N[C@@H](CCCCN)C(=O)N[C@H](C(=O)N[C@@H](CCC(=O)O)C(=O)N[C@@H](CCC(=O)O)C(=O)NCC(=O)N[C@@H](CC(N)=O)C(N)=O)[C@@H](C)O)NC(=O)[C@@H](CC(N)=O)NC(=O)[C@H]([C@@H](C)O)NC(=O)[C@@H](CC(C)C)NC1=O, IC50 0.036 µM. Against it:
- CC[C@H](C)[C@@H]1NC(=O)[C@H](C)N(C)C(=O)C[C@@H](C(=O)N2CCCC2)NC(=O)[C@H](CC(C)C)N(C)C(=O)[C@H](Cc2ccccc2)N(C)C(=O)[C@H](CC(C)C)NC(=O)[C@H](CCc2ccc(C(F)(F)F)cc2)NC(=O)CN(C)C(=O)[C@H](Cc2ccc(Cl)cc2)N(C)C(=O)CN(C)C1=O ([NMeA]I[Sar][NMePhe(4-Cl)][Sar][hPhe(4-CF3)]L[NMeF][NMeL]D-Pyrrolidide; lactam N-10) — 2-fold lower, 0.018 µM
- CC[C@H](C)[C@@H]1NC(=O)[C@H](CC(C)C)N(C)C(=O)C[C@H](C)NC(=O)[C@H](C(C)C)N(C)C(=O)C2(CCCC2)NC(=O)[C@@H]2CCCN2C(=O)[C@H](CCc2ccc(C(F)(F)F)c(Cl)c2)NC(=O)CN(C)C(=O)[C@H](CC2CCCCC2)N(C)C(=O)CN(C)C1=O (cyclo([Ac5c][NMeV][β3hA][NMeL]I[Sar][NMeCha][Sar][hPhe(3-Cl-4-CF3)]P)) — 3.3-fold lower, 0.011 µM
- CC[C@H](C)[C@@H]1NC(=O)[C@H](CC(C)C)N(C)C(=O)C[C@@H](C(=O)N(C)C)N(C)C(=O)[C@H](C2CCCC2)N(C)C(=O)C2(CCCC2)NC(=O)[C@@H]2CCCN2C(=O)[C@H](CCc2cc(F)c(C(F)(F)F)c(F)c2)NC(=O)CN(C)C(=O)[C@H](Cc2ccc(C)cc2)N(CC)C(=O)[C@@H]2CCN2C(=O)[C@H](C)N(C)C1=O ([NMeL]I[NMeA][Aze][NEtPhe(4-Me)][Sar][hPhe(3,5-F2-4-CF3)]P[Ac5c][NMeGly(cPent)][NMeD]-NMe2; lactam N-11) — lower, < 0.002 µM
- CC[C@H](C)[C@@H]1NC(=O)[C@H](C)N(C)C(=O)C[C@@H](C(=O)N2CCCC2)NC(=O)[C@H](C(C)C)N(C)C(=O)[C@H](Cc2ccccc2)N(C)C(=O)[C@H](Cc2c[nH]c3ccccc23)NC(=O)[C@H](Cc2cccc(Cl)c2)NC(=O)CN(C)C(=O)[C@H](Cc2ccc(Cl)cc2)N(C)C(=O)CN(C)C(=O)CN(C)C1=O ([NMeA]I[Sar][Sar][NMePhe(4-Cl)][Sar][Phe(3-Cl)]W[NMeF][NMeV]D-Pyrrolidide; lactam N-11) — 1.5-fold higher, 0.054 µM
- CC[C@H](C)[C@@H]1NC(=O)[C@H](CC(C)C)N(C)C(=O)C[C@H](C)NC(=O)[C@H](CC(C)C)N(C)C(=O)C2(CCCC2)NC(=O)[C@@H]2CCCN2C(=O)[C@H](CCc2ccc(C(F)(F)F)cc2)NC(=O)CN(C)C(=O)[C@H](CC2CCCCC2)N(C)C(=O)CN(C)C(=O)CN(C)C1=O (cyclo([Ac5c][NMeL][β3hA][NMeL]I[Sar][Sar][NMeCha][Sar][hPhe(4-CF3)]P)) — 3.1-fold higher, 0.11 µM
- C[C@@H](NC(=O)[C@H](Cc1ccccc1)NC(=O)[C@@H](CCCNC(=N)N)NC(=O)[C@H](CCCN)NC(=O)[C@@H]1CNC(=O)c2cc3cc(c2)C(=O)N[C@H](Cc2ccc4ccccc4c2)C(=O)N[C@@H](CO)C(=O)N[C@@H](CC(N)=O)C(=O)N[C@H](Cc2ccc4ccccc4c2)C(=O)N[C@@H](c2ccccc2)C(=O)N[C@@H](CCCCNC3=O)C(=O)N[C@H](Cc2ccccc2)C(=O)N[C@@H](CCC(N)=O)C(=O)N[C@H](CCCNC(=N)N)C(=O)CN[C@@H](CCCNC(=N)N)C(=O)N1)C(N)=O — 3.3-fold higher, 0.12 µM
- CC[C@H](C)[C@@H]1NC(=O)[C@H](CC(C)C)N(C)C(=O)C[C@H](C)NC(=O)[C@H](C(C)C)N(C)C(=O)C2(CCCC2)NC(=O)[C@@H]2CCCN2C(=O)[C@H](CCc2ccc(C(F)(F)F)c(Cl)c2)NC(=O)CN(C)C(=O)[C@H](CC2CCCCC2)N(C)C(=O)[C@@H]2CCN2C(=O)[C@H](C)N(C)C1=O (cyclo([Ac5c][NMeV][β3hA][NMeL]I[NMeA][Aze][NMeCha][Sar][hPhe(3-Cl-4-CF3)]P)) — within 1.5-fold, 0.024 µM

biological target: GTPase KRas/RAF1 (Homo sapiens, UniProt P01116); assay: Inhibition of KRAS/RAF interaction (unknown origin) by HTRF assay; assay type: protein assay
Sequence (P04049 whole entry): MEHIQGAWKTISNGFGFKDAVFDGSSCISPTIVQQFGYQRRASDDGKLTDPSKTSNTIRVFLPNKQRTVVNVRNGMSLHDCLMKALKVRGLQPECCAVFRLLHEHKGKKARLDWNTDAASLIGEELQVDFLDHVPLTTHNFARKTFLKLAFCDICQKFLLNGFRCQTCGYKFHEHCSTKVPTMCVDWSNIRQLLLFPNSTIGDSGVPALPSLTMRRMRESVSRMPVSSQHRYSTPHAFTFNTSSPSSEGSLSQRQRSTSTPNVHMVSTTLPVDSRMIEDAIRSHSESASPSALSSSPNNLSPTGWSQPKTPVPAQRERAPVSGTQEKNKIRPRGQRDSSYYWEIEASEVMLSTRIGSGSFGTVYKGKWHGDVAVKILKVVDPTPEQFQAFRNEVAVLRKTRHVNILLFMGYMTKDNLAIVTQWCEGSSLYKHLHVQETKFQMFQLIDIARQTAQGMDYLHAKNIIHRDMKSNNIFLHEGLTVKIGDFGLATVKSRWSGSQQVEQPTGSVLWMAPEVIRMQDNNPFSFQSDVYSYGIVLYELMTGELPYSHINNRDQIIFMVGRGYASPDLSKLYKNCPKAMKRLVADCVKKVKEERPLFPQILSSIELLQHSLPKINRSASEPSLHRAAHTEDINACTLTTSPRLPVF
Sequence (P01116 whole entry): as the sequence (P01116 whole entry) above

Point of comparison: CCCC[C@@H]1NC(=O)[C@H](Cc2ccc(F)cc2)NC(=O)[C@H](CCCNC(=N)N)NC(=O)[C@H](Cc2ccc3ccccc3c2)NC(=O)[C@H](CCCNC(=N)N)NC(=O)[C@H](CCCNC(=N)N)NC(=O)[C@H](CCCNC(=N)N)NC(=O)[C@H](C)NC(=O)[C@H]([C@@H](C)O)NC(=O)[C@H](Cc2c[nH]c3ccccc23)NC(=O)[C@H](CCC(N)=O)NC1=O (cyclo([2Nal]R[Phe(4-F)][Nle]QWTARRR)), IC50 0.12 µM. Against it:
- CCCC[C@@H]1NC(=O)[C@H](Cc2ccc(F)cc2)NC(=O)[C@H](CCCNC(=N)N)NC(=O)[C@H](Cc2ccc3ccccc3c2)NC(=O)[C@H](CCCNC(=N)N)NC(=O)[C@H](CCCNC(=N)N)NC(=O)[C@H](CCC(N)=O)NC(=O)[C@H](C)NC(=O)[C@H]([C@@H](C)O)NC(=O)[C@H](Cc2c[nH]c3ccccc23)NC(=O)[C@H](CO)NC1=O (cyclo([2Nal]R[Phe(4-F)][Nle]SWTAQRR)) — 5.4-fold higher, 0.65 µM

test system: not listed separately; assay: Inhibition of Biotinylated Avi-tagged KRas G12D mutant/GST tagged Raf1-RBD domain (1 to 149 residues) (unknown origin) incubated for 1 hr by TR-FRET assay; parameters: species or system Homo sapiens

Point of comparison: CC[C@H](C)[C@@H]1NC(=O)[C@H](Cc2ccccc2)NC(=O)[C@H](CCCCN)NC(=O)[C@H](CCC(=O)O)NC(=O)[C@H]([C@@H](C)O)NC(=O)[C@H](C(C)C)NC(=O)[C@H]([C@@H](C)CC)NC(=O)[C@H]([C@@H](C)CC)NC(=O)[C@H](Cc2ccc(O)cc2)NC(=O)CSC[C@@H](C(=O)NCC(N)=O)NC(=O)[C@H](Cc2c[nH]cn2)NC(=O)[C@H](Cc2c[nH]cn2)NC(=O)[C@H](C(C)C)NC(=O)[C@H](Cc2c[nH]c3ccccc23)NC1=O, IC50 3 µM. Against it:
- CC(C)C[C@@H]1NC(=O)[C@H](CCC(=O)O)NC(=O)[C@H](CC(C)C)NC(=O)[C@@H]2CCCN2C(=O)[C@H](CCCNC(=N)N)NC(=O)[C@H](Cc2ccc(O)cc2)NC(=O)[C@@H]2CCCN2C(=O)[C@H](Cc2ccc(O)cc2)NC(=O)[C@H](CC(N)=O)NC(=O)[C@@H](Cc2ccc(O)cc2)NC(=O)CSC[C@@H](C(=O)NCC(N)=O)NC(=O)[C@H](Cc2ccc(O)cc2)NC(=O)[C@H](Cc2c[nH]c3ccccc23)NC1=O — 5.1-fold higher, 15.3 µM

biological target: T1, GTPase KRas; assay: Binding affinity to KRas (unknown origin) assessed as dissociation constant

Cc1[nH]c2cc(Cl)cc(Cl)c2c1CCN gave a Kd of roughly 1100 µM.
